Experimental data as given in patent US11104648B2, “Pyrazole derivative” (Zhejiang Research Institute of Chemical Industry Co., Ltd., priority 2018, dated 2021).
Like-named read-outs stand apart in the source and are kept apart here.

Assays:
Type in all cases: in vivo
[1] = tested on: Tetranychus cinnabarinus Nymphs; assay: Activity assay of Tetranychus cinnabarinus nymphs (spray on broad bean leaves)
Experimental: According to the solubility of the test compound, the crude drug was dissolved in N, N-dimethylformamide, and then prepared into a test solution of the desired concentration with 1‰ Tween 80 aqueous solution. The content of N,N-dimethylformamide in the solution should not exceed 10%.
The broad bean leaves with petioles were cut and inserted into a small bottle with water. A certain number of brightly colored, active female adult mites were placed, 24h later, adult mites were removed, and leaves with insufficient eggs were removed. When eggs were hatched and grew into nymphs, spray treatment was performed. The experiment was repeated three times, and a blank control was set, and placed to an observation room (26±2° C., humidity 70%˜80%, 16h light per day) for culture. 48 h later, the results were investigated. The nymphs were gently touched during investigation, and if no response, they were regarded as deaths.

[2] = tested on: adult Tetranychus cinnabarinus; assay: Activity assay of adult Tetranychus cinnabarinus (whole-plant spray on bean seedlings); conditions: 48 h, read-out: adult mite-killing activity
Experimental: According to the solubility of the test compound, the crude drug was dissolved in N, N-dimethlfornamide, and then prepared into a test solution of the desired concentration with 1‰ Tween 80 aqueous solution. The content of N,N-dimethylformamide in the solution should not exceed 10%.
Two euphylla bean seedlings were taken, after inoculated with adult Tetranychus cinnabarinus and the base number was investigated, whole plants were sprayed with a hand-held sprayer. The experiment was repeated three times for each treatment, after treatment, placed in a standard observation room after treatment, to investigate the survival number of mites in 48 hand calculate the death rate.

[3] = tested on: Eggs of Tetranychus Cinnabarinus; assay: Activity assay of eggs of Tetranychus cinnabarinus (spray method, ovicidal); conditions: Tetranychus cinnabarinus, read-out: ovicidal activity
Experimental: According to the solubility of the test compound, the crude drug was dissolved in N N-dimethylformamide, and then prepared into a test solution of the desired concentration with 1‰ Tween 80 aqueous solution. The content of N. N-dimethylformamide in the solution should not exceed 10%.
Spray method. The broad bean leaves with petioles were cut and inserted into a bottle with water. A certain number of female mites were placed, 24h later, adult mites were removed, and spray treatment was performed in 24 h. The experiment was repeated three times, and a blank control was set, and placed to an observation room (26±2° C., humidity 70%˜80%, 16h light per day) for culture. When the blank control group was incubated, the results were investigated. The non-incubated ones were used as death for investigation.

[4] = 48 h, concentration 2.5 mg/L, read-out: nymph-killing activity
[5] = concentration 5 mg/L, spray, non-incubated eggs counted as dead

Structure (SMILES) | pest or weed control at 2.5 µg/mL [1, 4] | pest or weed control at 2.5 µg/mL ([2]; concentration 2.5 mg/L) | pest or weed control at 5 µg/mL [3, 5] | pest or weed control at 2.5 µg/mL ([1]; concentration 2.5 mg/L, 48 h, read-out: nymph-killing activity) | pest or weed control at 2.5 µg/mL ([1]; 48 h, read-out: nymph-killing activity) | pest or weed control at 2.5 µg/mL [2] | pest or weed control at 5 µg/mL [3]
Cc1cc(/C(OCOC(=O)C(F)(F)F)=C(\C#N)c2ccc(C(C)(C)C)cc2)n(C)n1 [Compound 13] | ≥ 95% | ≥ 90% | ≥ 90% | – | – | – | –
Cc1cc(/C(OCOC(=O)c2ccccc2)=C(\C#N)c2ccc(C(C)(C)C)cc2)n(C)n1 [Compound 14] | ≥ 95% | ≥ 90% | ≥ 90% | – | – | – | –
Cc1cc(/C(OCOC(=O)Cc2ccccc2)=C(\C#N)c2ccc(C(C)(C)C)cc2)n(C)n1 [Compound 15] | – | ≥ 90% | ≥ 90% | ≥ 95% | – | – | –
CCC(C)(C)C(=O)OCO/C(=C(/C#N)c1ccc(C(C)(C)C)cc1)c1cc(C)nn1C [Compound 16] | ≥ 95% | ≥ 90% | ≥ 90% | – | – | – | –
C=CC(=O)OCO/C(=C(/C#N)c1ccc(C(C)(C)C)cc1)c1cc(C)nn1C [Compound 17] | ≥ 95% | ≥ 90% | ≥ 90% | – | – | – | –
CC(=O)OC(C)O/C(=C(/C#N)c1ccc(C(C)(C)C)cc1)c1cc(C)nn1C (stereo not drawn) [Compound 26] | ≥ 95% | ≥ 90% | ≥ 90% | – | – | – | –
CCC(=O)OC(C)O/C(=C(/C#N)c1ccc(C(C)(C)C)cc1)c1cc(C)nn1C (stereo not drawn) [Compound 27] | ≥ 95% | ≥ 90% | ≥ 90% | – | – | – | –
CCCC(=O)OC(C)O/C(=C(/C#N)c1ccc(C(C)(C)C)cc1)c1cc(C)nn1C (stereo not drawn) [Compound 28] | ≥ 95% | ≥ 90% | ≥ 90% | – | – | – | –
Cc1cc(/C(OC(C)OC(=O)C(C)C)=C(\C#N)c2ccc(C(C)(C)C)cc2)n(C)n1 (stereo not drawn) [Compound 29] | ≥ 95% | ≥ 90% | ≥ 90% | – | – | – | –
Cc1cc(/C(OC(C)OC(=O)C(C)(C)C)=C(\C#N)c2ccc(C(C)(C)C)cc2)n(C)n1 (stereo not drawn) [Compound 30] | ≥ 95% | ≥ 90% | ≥ 90% | – | – | – | –
CCCCC(=O)OC(C)O/C(=C(/C#N)c1ccc(C(C)(C)C)cc1)c1cc(C)nn1C (stereo not drawn) [Compound 31] | ≥ 95% | ≥ 90% | ≥ 90% | – | – | – | –
Cc1cc(/C(OC(C)OC(=O)CC(C)C)=C(\C#N)c2ccc(C(C)(C)C)cc2)n(C)n1 (stereo not drawn) [Compound 32] | ≥ 95% | ≥ 90% | ≥ 90% | – | – | – | –
COCC(=O)OC(C)O/C(=C(/C#N)c1ccc(C(C)(C)C)cc1)c1cc(C)nn1C (stereo not drawn) [Compound 33] | ≥ 95% | ≥ 90% | ≥ 90% | – | – | – | –
Cc1cc(/C(OC(C)OC(=O)C2CC2)=C(\C#N)c2ccc(C(C)(C)C)cc2)n(C)n1 (stereo not drawn) [Compound 34] | ≥ 95% | ≥ 90% | ≥ 90% | – | – | – | –
CSCC(=O)OC(C)O/C(=C(/C#N)c1ccc(C(C)(C)C)cc1)c1cc(C)nn1C (stereo not drawn) [Compound 35] | ≥ 95% | ≥ 90% | ≥ 90% | – | – | – | –
Cc1cc(/C(OC(C)OC(=O)C2CCCCC2)=C(\C#N)c2ccc(C(C)(C)C)cc2)n(C)n1 (stereo not drawn) [Compound 36] | ≥ 95% | ≥ 90% | ≥ 90% | – | – | – | –
Cc1cc(/C(OC(C)OC(=O)CF)=C(\C#N)c2ccc(C(C)(C)C)cc2)n(C)n1 (stereo not drawn) [Compound 37] | – | – | – | – | ≥ 95% | ≥ 90% | ≥ 90%
